Results from patent US20230031406A1, “COMPOUNDS AND COMPOSITIONS FOR TREATING CONDITIONS ASSOCIATED WITH NLRP ACTIVITY” (Novartis AG, priority 2018, published 2023).
Read-outs that look alike come from different tables or passages of the source. Each block holds one compound with its values, some of them ahead of it.

System: PMA-differentiated THP-1 cells
Assay: IL-1β production in PMA-differentiated THP-1 cells stimulated with gramicidin (hTHP-1 assay containing 2% fetal bovine serum; Procedures 1 and 2)
Assay type: cell-based, human
Conditions: 2% fetal bovine serum
Procedure, shortened: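 PMA 20 ng/ml 16-18 h → trypsinise → 50,000 cells/well, RPMI/2% FBS; cpd 1 h (11-pt, 100–0.0017 μM; DMSO 0.37%); gramicidin 5 μM, 2 h; spin; supernatant IL-1β via HTRF.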

[1] = Homo sapiens, THP-1, Table B2, class symbols, read-out: hTHP-1 IC50
[2] = Table B4, class symbols, read-out: hTHP-1 IC50
[3] = Homo sapiens, THP-1, Table B4, class symbols, read-out: hTHP-1 IC50
[4] = Table B1, class symbols, read-out: Average IC50 of compounds in hTHP-1 assay: hTHP-1 IC50
[5] = Homo sapiens, THP-1, Table B1, class symbols, read-out: Average IC50 of compounds in hTHP-1 assay: hTHP-1 IC50

IC50 (Homo sapiens, THP-1, Table B3, hTHP-1 assay, numeric values, read-out: IC50): > 30000 nM
Compound: CO[C@H]1COc2c(S(N)(=O)=NC(=O)Nc3c(C)c(C(F)(F)F)nc4c3CCC4)cnn2C1 (single isomer, unassigned) [Example 655, (S) or (R)-(6R)-6-methoxy-N′-((3-methyl-2-(trifluoromethyl)-6,7-dihydro-5H-cyclopenta[b]pyridin-4-yl)carbamoyl)-6,7-dihydro-5H-pyrazolo[5,1-b][1,3] oxazine-3-sulfonimidamide]

IC50 [1]: 1000 to 5000 nM
Compound: CC1CCc2c1nc1c(c2NC(=O)N=S(N)(=O)c2cc(C(C)(C)O)n(-c3ccccc3)n2)CCC1 (single isomer, unassigned) [Compound 664b, (R) or (S)-5-(2-Hydroxypropan-2-yl)-N′-((3-methyl-1,2,3,5,6,7-hexahydrodicyclopenta [b,e]pyridin-8-yl)carbamoyl)-1-phenyl-1H-pyrazole-3-sulfonimidamide]

IC50 (Homo sapiens, THP-1, Table B2, numeric bounds, read-out: hTHP-1 IC50): > 30000 nM
Compound: CC(C)(O)c1sc(S(N)(=O)=NC(=O)Nc2c3c(nc4c2CCC4)CCC3)cc1F (single isomer, unassigned) [Compound 678b, (S) or (R)-4-Fluoro-N′-((1,2,3,5,6,7-hexahydrodicyclopenta [b,e]pyridin-8-yl)carbamoyl)-5-(2-hydroxypropan-2-yl)thiophene-2-sulfonimidamide]

IC50 (Homo sapiens, THP-1, Table B1, numeric bounds, read-out: Average IC50 of compounds in hTHP-1 assay: hTHP-1 IC50): > 30000 nM
Compound: CC1CCc2c1nc1c(c2NC(=O)N=S(N)(=O)c2ccc(CN(C)C)cc2)CCC1 (single isomer, unassigned) [Compound 134aa, (S,S) or (S,R)-4-((di-methylamino)methyl)-N′-((3-methyl-1,2,3,5,6,7-hexahydrodicyclo-penta[b,e]pyridin-8-yl)carbamoyl)benzene-sulfonimidamide]

IC50 [2]: 8 to 40 nM
Compound: CCn1cc(F)c(S(N)(=O)=NC(=O)Nc2c3c(nc(C(F)(F)F)c2-c2ccc(F)cc2)CCC3)n1 (single isomer, unassigned) [Example 787, (R) or (S)-1-ethyl-4-fluoro-N′-((3-(4-fluorophenyl)-2-(trifluoromethyl)-6,7-dihydro-5H-cyclopenta[b]pyridin-4-yl)carbamoyl)-1H-pyrazole-3-sulfonimidamide]

IC50 [3]: 1000 to 5000 nM
Compound: CCn1cc(F)c(S(N)(=O)=NC(=O)Nc2c(-c3ccccc3)cnc3c2CCC3)n1 (stereo not drawn) [Example 745, 1-Ethyl-4-fluoro-N′-((3-phenyl-6,7-dihydro-5H-cyclopenta[b]pyridin-4-yl)carbamoyl)-1H-pyrazole-3-sulfonimidamide]

IC50 [2]: 8 to 40 nM
Compound: CCn1cc(F)c(S(N)(=O)=NC(=O)Nc2c3c(nc(C(F)(F)F)c2-c2cccc(F)c2)CCC3)n1 (stereo not drawn) [Example 747, 1-Ethyl-4-fluoro-N′-((3-(3-fluorophenyl)-2-(trifluoromethyl)-6,7-dihydro-5H-cyclopenta[b]pyridin-4-yl)cathamoyl)-1H-pyrazole-3-sulfonimidamide]

IC50 [4]: 1000 to 5000 nM
Compound: CC(C)c1ncc(F)c(C(C)C)c1NC(=O)N=S(N)(=O)c1ncc(C(C)(C)O)s1 (stereo not drawn) [Compound 165, N′-((5-fluoro-2,4-diisopropylpyridin-3-yl)carbamoyl)-5-(2-hydroxypropan-2-yl)thiazole-2-sulfonimidamide]

IC50 [4]: 1000 to 5000 nM
Compound: CC(C)c1ncc(F)c(C(C)C)c1NC(=O)N=S(N)(=O)c1cc(C(C)(C)O)cs1 (single isomer, unassigned) [Compound 148b, (S) or (R)-N′-((5-fluoro-2,4-diisopropylpyridin-3-yl)carbamoyl)-4-(2-hydroxypropan-2-yl)thiophene-2-sulfonimidamide]

IC50 [4]: 1000 to 5000 nM
Compound: CC(C)(O)c1csc(S(N)(=O)=NC(=O)Nc2c3c(nc4c2CCC4(C)C)CCC3)c1 (single isomer, unassigned) [Compound 127a, (S) or (R)-N′-((3,3-dimethyl-1,2,3,5,6,7-hexahydro-dicyclopenta[b,e]pyridin-8-yl)carbamoyl)-4-(2-hydroxypropan-2-yl)thiophene-2-sulfonimidamide]

IC50 [4]: 1000 to 5000 nM
Compound: CC1CCc2c1nc1c(c2NC(=O)N=S(N)(=O)c2sc(C(C)(C)O)cc2F)CCC1 (single isomer, unassigned) [Compound 103aa, (S,R) or (S,S)-3-fluoro-5-(2-hydroxypropan-2-yl)-N′-((3-methyl-1,2,3,5,6,7-hexahydrodicyclo-penta[b,e]pyridin-8-yl)carbamoyl)thiophene-2-sulfonimidamide]

IC50 [4]: 5000 to 30000 nM
Compound: CC1CCc2c1nc1c(c2NC(=O)N=S(N)(=O)c2cc(C(C)(C)O)cs2)CCC1C (single isomer, unassigned) [Compound 131e, (S,S,S) or (S,R,S) and (S,S,R) or (S,R,R)-N′-((3,5-dimethyl-1,2,3,5,6,7-hexahydro-dicyclopenta[b,e]pyridin-8-yl)carbamoyl)-4-(2-hydroxypropan-2-yl)thio-phene-2-sulfonimidamide]

IC50 (Homo sapiens, THP-1, Table B3, hTHP-1 assay, class symbols, read-out: IC50): 1000 to 5000 nM
Compound: CC(C)n1nc(S(N)(=O)=NC(=O)Nc2c3c(nc4c2CCC42CC2)CCC3)cc1CO (single isomer, unassigned) [Example 641, (R) or (S)-5-(hydroxymethyl)-1-isopropyl-N′-((1′,5′,6′,7′-tetrahydro-2′H-spiro[cyclopropane-1,3′-dicyclopenta[b,e]pyridin]-8′-yl)carbamoyl)-1H-pyrazole-3-sulfonimidamide]

IC50 [5]: 200 to 1000 nM
Compound: CNS(=O)(=NC(=O)Nc1c2c(nc3c1CCC3)CCC2)c1ccc(CN(C)C)cc1 (stereo not drawn) [Compound 120, 4-((Dimethylamino)methyl)-N′-((1,2,3,5,6,7-hexahydrodicyclopenta[b,e]pyridin-8-yl)carbamoyl)-N-methylbenzenesulfonimidamide]

IC50 [4]: 200 to 1000 nM
Compound: CC1CCc2c1nc1c(c2NC(=O)N=S(N)(=O)c2cc(C(C)(C)O)cs2)CCC1C [Compound 131aab, (R,R,S) and (R,S,R)-N′-((3,5-dimethyl-1,2,3,5,6,7-hexa-hydrodicyclo-penta[b,e]pyridin-8-yl)carbamoyl)-4-(2-hydroxypropan-2-yl)thiophene-2-sulfonimidamide]

IC50 [4]: 40 to 200 nM
Compound: CC1CCc2c1nc1c(c2NC(=O)N=S(N)(=O)c2sc(C(C)(C)O)cc2F)CCC1 (stereo not drawn) [Compound 103, 3-fluoro-5-(2-hydroxypropan-2-yl)-N′-((3-methyl-1,2,3,5,6,7-hexahydrodicyclopenta[b,e]pyridin-8-yl)carbamoyl)thiophene-2-sulfonimidamide]

IC50 (Table B1, numeric bounds, read-out: Average IC50 of compounds in hTHP-1 assay: hTHP-1 IC50): > 30000 nM
Compound: CCc1cc(NC(=O)N=S(N)(=O)c2cnc(C(C)(C)O)s2)c2c(n1)CCC2 (single isomer, unassigned) [Compound 137b, (S) or (R)-N′-((2-ethyl-6,7-dihydro-5H-cyclopenta[b]pyridin-4-yl)carbamoyl)-2-(2-hydroxypropan-2-yl)thiazole-5-sulfonimidamide]

IC50 [3]: 200 to 1000 nM
Compound: CC1(C)CCc2c1nc1c(c2NC(=O)N=S(N)(=O)c2cnc(C(O)CO)s2)CCC1 (stereo not drawn) [Example 753, 2-(1,2-Dihydroxyethyl)-N′-((3,3-dimethyl-1,2,3,5,6,7-hexahydrodicyclopenta[b,e]pyridin-8-yl)carbamoyl) thiazole-5-sulfonimidamide]

IC50 [4]: 1000 to 5000 nM
Compound: CC1CCc2c1nc1c(c2NC(=O)N=S(N)(=O)c2ncc(C(C)(C)O)s2)CCC1 (single isomer, unassigned) [Compound 140ab, (R,S) or (R,R)-5-(2-hydroxypropan-2-yl)-N′-((3-methyl-1,2,3,5,6,7-hexa-hydrodicyclo-penta[b,e]pyridin-8-yl)carbamoyl)thiazole-2-sulfonimidamide]

IC50 [1]: 1000 to 5000 nM
Compound: C[C@@H]1CCc2c1nc1c(c2NC(=O)N=S(N)(=O)c2ccn(C)n2)CCC1 (stereo partly drawn) [Compound 639, 1-Methyl-N′-(((R)-3-methyl-1,2,3,5,6,7-hexahydrodicyclopenta[b,e]pyridin-8-yl)carbamoyl)-1H-pyrazole-3-sulfonimidamide]

IC50 [5]: 200 to 1000 nM
Compound: CC(C)(O)c1nc(CCO)c(S(N)(=O)=NC(=O)Nc2c3c(nc4c2CCC4)CCC3)s1 (single isomer, unassigned) [Compound 118a, (R) or (S)-N′-((1,2,3,5,6,7-hexahydrodicyclo-penta[b,e]pyridin-8-yl)carbamoyl)-4-(2-hydroxyethyl)-2-(2-hydroxypropan-2-yl)thiazole-5-sulfonimidamide]

IC50 [5]: 1000 to 5000 nM
Compound: CC1(C)Cc2nc3c(c(NC(=O)N=S(N)(=O)c4cnc(C(C)(C)O)s4)c2C1)CCC3 (single isomer, unassigned) [Compound 147b, (R) or (S)-N′-((2,2-dimethyl-1,2,3,5,6,7-hexahydro-dicyclopenta[b,e]pyridin-8-yl)carbamoyl)-2-(2-hydroxypropan-2-yl)thiazole-5-sulfonimidamide]

IC50 [3]: 1000 to 5000 nM
Compound: CN(C)C(=O)c1ncc(S(N)(=O)=NC(=O)Nc2c3c(nc4c2CCC4(C)C)CCC3)s1 (stereo not drawn) [Example 751, 5-(N′-((3,3-dimethyl-1,2,3,5,6,7-hexahydrodicyclopenta[b,e]pyridin-8-yl)carbamoyl)sulfamidimidoyl)-N,N-dimethyl-thiazole-2-carboxamide]

IC50 (Table B2, class symbols, read-out: hTHP-1 IC50): 1000 to 5000 nM
Compound: CC1CCc2c1nc1c(c2NC(=O)N=S(N)(=O)c2cnn(C(C)C)c2)CCC1 (single isomer, unassigned) [Compound 171c, (R, R) and (R, S) or (S, R) and (S, S)-1-Isopropyl-N′-((3-methyl-1,2,3,5,6,7-hexahydrodicyclopenta [b,e]pyridin-8-yl)carbamoyl)-1H-pyrazole-4-sulfonimidamide]
